Measured values: ChEMBL document CHEMBL3525953, “In vitro cytochrome P450-mediated metabolism of exemestane” (Drug Metab Dispos, 2011)

Columns and labels:
Assay type in all cases: ADME
Cytochrome P450 1A1 = molecular target: T1, Cytochrome P450 1A1 (Homo sapiens, UniProt P04798); experiment: Drug metabolism assessed as human recombinant CYP1A1-mediated 17-hydroexemestane formation rate per pmol of enzyme at 10 uM after 10 mins
T1 sequence (P04798 whole entry): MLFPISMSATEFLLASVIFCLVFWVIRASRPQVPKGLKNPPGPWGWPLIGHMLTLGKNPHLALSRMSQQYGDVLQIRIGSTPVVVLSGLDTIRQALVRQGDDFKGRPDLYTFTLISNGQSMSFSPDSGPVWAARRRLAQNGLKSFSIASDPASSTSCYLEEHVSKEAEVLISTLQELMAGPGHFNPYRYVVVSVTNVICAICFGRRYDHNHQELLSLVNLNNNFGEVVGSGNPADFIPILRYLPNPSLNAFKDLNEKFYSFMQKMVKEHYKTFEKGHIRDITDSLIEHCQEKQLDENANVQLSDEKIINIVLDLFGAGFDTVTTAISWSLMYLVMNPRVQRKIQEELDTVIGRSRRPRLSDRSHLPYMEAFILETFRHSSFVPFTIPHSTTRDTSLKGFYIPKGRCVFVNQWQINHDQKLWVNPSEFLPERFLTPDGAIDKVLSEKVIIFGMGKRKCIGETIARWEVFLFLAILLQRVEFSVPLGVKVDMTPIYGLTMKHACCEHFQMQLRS

Cytochrome P450 4A11 = molecular target: T2, Cytochrome P450 4A11 (Homo sapiens, UniProt Q02928); experiment: Drug metabolism assessed as human recombinant CYP4A11-mediated 17-hydroexemestane formation rate per pmol of enzyme at 10 uM after 10 mins
T2 sequence (Q02928 whole entry): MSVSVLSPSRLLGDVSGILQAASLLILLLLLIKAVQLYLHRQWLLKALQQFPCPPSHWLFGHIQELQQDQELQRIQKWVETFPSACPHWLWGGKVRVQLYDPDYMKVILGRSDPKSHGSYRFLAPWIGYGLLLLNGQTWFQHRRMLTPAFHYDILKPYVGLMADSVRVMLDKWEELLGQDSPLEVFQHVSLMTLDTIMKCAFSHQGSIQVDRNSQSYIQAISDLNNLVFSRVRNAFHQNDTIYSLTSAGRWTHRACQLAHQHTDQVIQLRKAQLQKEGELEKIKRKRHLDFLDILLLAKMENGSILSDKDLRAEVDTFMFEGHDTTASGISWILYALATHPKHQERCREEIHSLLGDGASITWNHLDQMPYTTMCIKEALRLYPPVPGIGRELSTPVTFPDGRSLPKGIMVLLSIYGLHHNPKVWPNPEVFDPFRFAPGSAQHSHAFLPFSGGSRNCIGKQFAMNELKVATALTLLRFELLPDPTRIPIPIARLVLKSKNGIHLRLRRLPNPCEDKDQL

Cytochrome P450 3A4 = Cytochrome P450 3A4 (Homo sapiens, UniProt P08684); experiment: Drug metabolism assessed as human recombinant CYP3A4-mediated 17-hydroexemestane formation rate per pmol of enzyme at 10 uM after 10 mins
Cytochrome P450 2C19 = Cytochrome P450 2C19 (Homo sapiens, UniProt P33261); experiment: Drug metabolism assessed as human recombinant CYP2C19-mediated 17-hydroexemestane formation rate per pmol of enzyme at 10 uM after 10 mins
Liver microsome [1] = experiment: Drug metabolism in human liver microsomes assessed as retention time treated with 300 uM of exemestane after 10 mins by HPLC with UV analysis
Liver microsome [2] = experiment: Drug metabolism in human liver microsomes assessed as 17-hydroexemestane formation after 10 mins by Michaelis-Menten saturation curve analysis
Liver microsome [3] = experiment: Drug metabolism in human liver microsomes assessed as 17-hydroexemestane formation at 10 uM after 10 mins by LC-MS/MS analysis
Aromatase = molecular target: T3, Aromatase (Homo sapiens, UniProt P11511); experiment: Drug metabolism assessed as human recombinant CYP19-mediated 17-hydroexemestane formation at 10 uM after 10 mins by Michaelis-Menten saturation curve analysis; conditions: recombinant enzyme
T3 sequence (P11511 whole entry): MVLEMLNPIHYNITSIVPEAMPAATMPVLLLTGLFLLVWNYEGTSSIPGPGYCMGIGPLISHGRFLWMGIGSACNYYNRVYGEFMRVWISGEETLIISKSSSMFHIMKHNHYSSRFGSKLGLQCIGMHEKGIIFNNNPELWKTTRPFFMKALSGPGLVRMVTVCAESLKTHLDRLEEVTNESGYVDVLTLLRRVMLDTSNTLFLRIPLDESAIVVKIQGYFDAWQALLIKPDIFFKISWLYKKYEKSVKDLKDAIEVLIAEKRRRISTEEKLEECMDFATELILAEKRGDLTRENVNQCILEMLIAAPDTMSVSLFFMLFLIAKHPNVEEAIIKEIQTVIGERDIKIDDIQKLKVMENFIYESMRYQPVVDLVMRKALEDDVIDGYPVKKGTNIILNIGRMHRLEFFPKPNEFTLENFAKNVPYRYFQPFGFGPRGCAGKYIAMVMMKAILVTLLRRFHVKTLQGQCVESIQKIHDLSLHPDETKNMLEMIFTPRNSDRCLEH

Cytochrome P450 1A2 = molecular target: T4, Cytochrome P450 1A2 (Homo sapiens, UniProt P05177); experiment: Drug metabolism assessed as human recombinant CYP1A2-mediated 17-hydroexemestane formation at 10 uM after 10 mins by Michaelis-Menten saturation curve analysis; conditions: recombinant enzyme
T4 sequence (P05177 whole entry): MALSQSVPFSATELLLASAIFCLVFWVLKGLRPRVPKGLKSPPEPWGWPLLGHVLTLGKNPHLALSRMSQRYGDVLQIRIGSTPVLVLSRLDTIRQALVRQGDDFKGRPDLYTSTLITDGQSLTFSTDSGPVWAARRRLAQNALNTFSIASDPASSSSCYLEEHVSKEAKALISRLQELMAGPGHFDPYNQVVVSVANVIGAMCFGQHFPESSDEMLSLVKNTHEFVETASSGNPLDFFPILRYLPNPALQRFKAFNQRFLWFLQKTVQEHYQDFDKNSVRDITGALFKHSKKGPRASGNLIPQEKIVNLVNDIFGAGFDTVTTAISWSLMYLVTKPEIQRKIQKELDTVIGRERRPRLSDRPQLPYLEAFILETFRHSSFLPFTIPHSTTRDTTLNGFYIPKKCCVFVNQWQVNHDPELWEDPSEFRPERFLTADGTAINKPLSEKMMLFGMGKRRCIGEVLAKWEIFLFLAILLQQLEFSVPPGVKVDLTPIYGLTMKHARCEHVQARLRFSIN

Chain of Cytochrome P450 3A4 (P08684 whole entry): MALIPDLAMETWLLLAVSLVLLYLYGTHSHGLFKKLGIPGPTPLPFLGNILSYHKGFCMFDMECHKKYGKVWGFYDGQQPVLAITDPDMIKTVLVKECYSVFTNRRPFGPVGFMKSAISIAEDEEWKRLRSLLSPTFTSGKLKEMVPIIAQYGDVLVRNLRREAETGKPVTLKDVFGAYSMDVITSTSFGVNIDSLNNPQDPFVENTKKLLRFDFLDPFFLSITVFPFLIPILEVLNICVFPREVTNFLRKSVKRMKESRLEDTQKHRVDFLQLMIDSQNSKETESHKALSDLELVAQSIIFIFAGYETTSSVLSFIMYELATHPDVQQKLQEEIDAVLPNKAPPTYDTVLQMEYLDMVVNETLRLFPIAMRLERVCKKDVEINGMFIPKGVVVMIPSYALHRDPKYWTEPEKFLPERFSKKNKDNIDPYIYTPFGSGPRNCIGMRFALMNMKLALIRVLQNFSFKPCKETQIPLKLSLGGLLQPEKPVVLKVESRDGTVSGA
Chain of Cytochrome P450 2C19 (P33261 whole entry): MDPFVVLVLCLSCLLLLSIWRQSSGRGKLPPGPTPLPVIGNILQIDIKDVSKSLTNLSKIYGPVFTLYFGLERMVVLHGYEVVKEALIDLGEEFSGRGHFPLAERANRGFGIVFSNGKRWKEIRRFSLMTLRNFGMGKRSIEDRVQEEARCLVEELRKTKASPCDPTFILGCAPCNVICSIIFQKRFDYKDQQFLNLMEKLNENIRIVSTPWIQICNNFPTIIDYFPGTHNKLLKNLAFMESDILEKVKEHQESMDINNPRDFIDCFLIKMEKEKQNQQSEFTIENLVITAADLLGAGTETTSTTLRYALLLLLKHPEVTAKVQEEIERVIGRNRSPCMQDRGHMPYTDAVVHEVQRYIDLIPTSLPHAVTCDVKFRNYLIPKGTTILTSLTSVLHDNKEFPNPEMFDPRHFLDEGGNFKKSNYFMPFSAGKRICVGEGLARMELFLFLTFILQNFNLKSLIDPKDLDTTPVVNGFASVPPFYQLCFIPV

Work on C=C1C[C@@H]2[C@H](CC[C@]3(C)C(O)CC[C@@H]23)[C@@]2(C)C=CC(=O)C=C12 (stereo not given in full) yielded a Drug metabolism (Cytochrome P450 1A1) of 1.09 pmol/min, a Drug metabolism (Cytochrome P450 4A11) of 0.48 pmol/min and a Drug metabolism (Cytochrome P450 3A4) of 0.17 pmol/min. For the same compound, the Drug metabolism (Cytochrome P450 2C19) was “metabolite_not_detected”, the Retention_time (Liver microsome [1]) was 13.1 min and the “Vmax(app)” value (Liver microsome [2]) was 222.4 pmol/mg/min. The Km (Liver microsome [2]; read-out: Km(app)) was 13.7 µM, the “Vmax(app)” value (Liver microsome [3]) was 137.32 pmol/mg/min and the Drug metabolism (Aromatase) was “metabolite_detected”. For the same compound, the Drug metabolism (Cytochrome P450 1A2) was “metabolite_detected”.
